Read-outs that look alike come from different tables or passages of the source.
How the values were obtained:
[1] = tested on: Ser^473 p-AKT in platelet-rich plasma; experiment: Phosphorylation of AKT (Ser473) in platelet-rich plasma, MSD electrochemiluminescent immunoassay; type: in vivo, human
Method: Figure 1. Pharmacodynamic profile of vistusertib at 50 mg bd 3/7. Phosphorylation of AKT (Ser473) in platelet-rich plasma was quantified using MSD electrochemiluminescent immunoassays and normalised to corresponding total AKT values. Baseline values were established prior to the start of treatment. On C1D1, only paclitaxel (80 mg/m^2) was administered and a non-significant rise in p-ATK at 4 h following treatment was noted. […] On C1D8, the combination of paclitaxel and vistusertib was administered, which caused a significant reduction of p-AKT compared with baseline. Points represent individual patients, orange line represents mean of up to N = 6 patients. Four samples were excluded because of haemolysis, which interfered with the assay (*P<0.05; paired t-test).
pAkt was assessed in platelet rich plasma (PRP) using a sandwich immunoassay as per manufacturer’s instructions (K11100D, Meso Scale Discovery, Maryland, USA) which consisted of a multiplex assay with plates pre-coated with phospho(Ser473) Akt and total Akt capture antibodies. These plates were blocked for 1 hour, incubated with sample for 1 hour, and finally incubated with an anti-total Akt detection antibody conjugated to MSD-SULFO-TAG for 1 hour before being detected on a Meso Scale Discovery Sector Imager 6000 using electrochemiluminescence in order to determine the percentage of Akt phosphorylated. During validation the inter-assay precision ranged from 6.75 to 7.17%.

[2] = Pharmacokinetic sampling (plasma, LC-MS/MS) in the dose-escalation arm; details: paclitaxel with vistusertib
Method: (§3) This method is applicable to the analysis of AZD2014 in human plasma treated with K2EDTA anticoagulant. AZD2014 and the internal standard (ISTD), 13C22H2AZ12729279 are extracted from human plasma by solid-phase extraction (SPE). After evaporation under nitrogen, the residue is reconstituted and analysed using liquid chromatography (LC) with tandem mass spectrometric detection (MS/MS). The standard curve range is from 20.0 to 20,000 ng/mL for AZD2014, using a plasma sample volume of 0.0250 mL.

ovarian cancer models = tested on: ovarian cancer models; parameters: method as in PMID 29371953; details: in vitro and in vivo; cited from earlier work
[3] = tested on: patients with advanced solid tumours; experiment: Toxicity (NCI-CTCAE V4.0), DLT and MTD in the dose-escalation cohort, vistusertib with weekly paclitaxel 80 mg/m^2
Method: The dose of paclitaxel administered was 80 mg/m^2 once weekly for 6/7 weeks in a 7-week cycle. In the first week of the dose-escalation cohorts, patients received only paclitaxel on C1D1, then vistusertib on C1D3 to allow for PK and PD samplings. Patients then received weekly paclitaxel (on days 8, 15, 22, 29, and 36) with vistusertib, also starting on days 8, 15, 22, 29, and 36, given orally twice daily either for three consecutive days per week (schedule A: 3/7 days, 6/7 weeks) or two consecutive days per week (schedule B: 2/7 days, 6/7 weeks). In the dose expansion, schedule A was taken forward with patients dosing with vistusertib weekly on days 1–3 for 6 weeks of a 7-week cycle.

[4] = tested on: squamous non-small-cell lung cancer (sqNSCLC); experiment: Squamous lung cancer expansion: RECIST v1.1 response and progression-free survival; type: in vivo, human
Method: (§1) RECIST v1.1 was used to assess tumour response supported by GCIG CA125 response in patients with HGSOC. Response was assessed at the end of every 7-week cycle.
(§2) Progression-free survival was estimated by the Kaplan–Meier method, beginning on the day of the first dose (C1D1) and continuing until disease progression. Patients who came off study for reasons other than disease progression (clinical or RECIST) were censored. This study is registered with ClinicalTrials.gov, identifier: NCT02193633.

clinical = details: human, in vivo, geometric mean; for AUC(0-t): AUClast of vistusertib; for Cmax: Cmax of vistusertib; for half-life: HL Lambda_z (half-life) of vistusertib
Method: as §3

[5] = parameters: method as in PMID 23375793, PMID 25805799; details: cited from earlier work
[6] = in vivo
Method: as §3

patients with sqNSCLC = experiment: Toxicity (NCI-CTCAE V4.0) in the squamous non-small cell lung cancer expansion cohort
Method: Patients administered with 80 mg/m^2 paclitaxel with 50 mg vistusertib bd 3/7 days for 6/7 weeks, dosing starting concurrently on day 1 of each week
Patients administered with 80 mg/m^2 paclitaxel with 25 mg vistusertib bd 3/7 days for 6/7 weeks, dosing starting concurrently on day 1 of each week treated at paclitaxel 80 mg/m^2/week and vistusertib 25 mg bd 3/7.

patients = experiment: Toxicity (NCI-CTCAE V4.0), whole study: hyperglycaemia incidence; details: vistusertib + weekly paclitaxel
[7] = tested on: high-grade serous ovarian cancer (HGSOC); experiment: Ovarian cancer expansion: RECIST v1.1 / GCIG CA125 response and progression-free survival; type: in vivo, human
Method: as §1, §2
Twenty-seven patients with relapsed/refractory HGSOC were treated at the RP2D. Two patients were replaced as per protocol and were not considered for assessment of response. The median number of previous treatments was three: the majority (26/27; 96%) of patients having received paclitaxel and 3/27 patients (11%) having previously received weekly paclitaxel (supplementary Table S2, available at Annals of Oncology online). The RECIST and CA125 response rates were 13/25 (52%) and 16/25 (64%), respectively (Figure 2A). The mPFS was 5·8 months (95% CI: 3.3–18.5).

sqNSCLC = experiment: RECIST response in the dose-escalation cohort; type: in vivo, human; details: vistusertib + weekly paclitaxel
Method: as §1

[8] = sqNSCLC expansion, 25 mg cohort
[9] = sqNSCLC expansion, 25 mg vistusertib bd 3/7 days + paclitaxel 80 mg/m^2
[10] = Lung Expansion 25 mg + paclitaxel (N=24), all grades
[11] = Lung Expansion 50 mg + paclitaxel (N=17), all grades
[12] = HGSOC expansion, 50 mg vistusertib bd 3/7 days + paclitaxel 80 mg/m^2
[13] = HGSOC expansion, 50 mg vistusertib bd 3/7 days + paclitaxel 80 mg/m^2, 25 patients

CC(=O)O[C@H]1C(=O)[C@@]2(C)[C@H]([C@H](OC(=O)c3ccccc3)[C@]3(O)C[C@H](OC(=O)[C@H](O)[C@@H](NC(=O)c4ccccc4)c4ccccc4)C(C)=C1C3(C)C)[C@]1(OC(C)=O)CO[C@@H]1C[C@@H]2O [paclitaxel]
Increase in Ser^473 p-AKT levels in PRP ([1]; 4 h following 80 mg/m^2 paclitaxel alone (C1D1), P = 0.14, statistically non-significant): 1.4 fold | Drug-drug PK interaction on drug exposure, combination versus either agent alone [2]: no drug-drug PK interaction

CNC(=O)c1cccc(-c2ccc3c(N4CCOC[C@@H]4C)nc(N4CCOC[C@@H]4C)nc3n2)c1 [vistusertib]
Effect of the combination of vistusertib and paclitaxel on growth (ovarian cancer models): additive effect | Recommended phase II dose (RP2D) of vistusertib ([3]; bd 3/7 days for 6/7 weeks, with 80 mg/m^2 weekly paclitaxel): 50 mg | Dose-limiting toxicities ([3]; in vivo): rash | Dose-limiting toxicities ([3]; schedule A (bd 3/7 days) with weekly paclitaxel 80 mg/m^2): fatigue and mucositis | Maximally tolerated dose (MTD) of vistusertib ([3]; schedule A, bd 3/7 days for 6/7 weeks, with 80 mg/m^2 weekly paclitaxel): 50 mg | Maximally tolerated dose (MTD) of vistusertib ([3]; schedule B, bd 2/7 days for 6/7 weeks, with 80 mg/m^2 weekly paclitaxel): 75 mg | RECIST response, N with PR ([4]; LUNG Expansion (25 mg AZD2014/80 mg Paclitaxel), 24 patients): 8 | Patients with reduction in the size of their tumour [4, 8]: 78% | Patients with reduction in the size of their tumour, number [4, 8]: Eighteen of the 23 | Median progression-free survival (mPFS) [4, 9]: 5.8 months | RECIST responses (partial response), patients [4, 9]: 8/23 | RECIST response rate ([4]; sqNSCLC expansion, 25 mg vistusertib bd 3/7 days + paclitaxel 80 mg/m^2, 23 patients): 35% | Ser^473 p-AKT lower than corresponding time-point following paclitaxel alone ([1]; 4 h, vistusertib 50 mg bd 3/7 + paclitaxel): 62% | Ser^473 p-AKT in PRP, % of pre-dose levels ([1]; 4 h post-vistusertib, 50 mg bd 3/7 in addition to paclitaxel (C1D8), P = 0.0495): 53% | Change of p-AKT in PRP after single dose of vistusertib alone ([1]; C1D4, 50 mg): non-significant reduction | AUC(0-t) (clinical; 25 mg): 2090 ng·h/mL | Cmax (clinical; 25 mg): 579 ng/mL | half-life (clinical; 25 mg): 3.3 h | AUC(0-t) (clinical; 50 mg): 2600 ng·h/mL | Cmax (clinical; 50 mg): 840 ng/mL | half-life (clinical; 50 mg): 1.8 h | AUC(0-t) (clinical; 75 mg): 7540 ng·h/mL | Cmax (clinical; 75 mg): 1840 ng/mL | half-life (clinical; 75 mg): 2.7 h | AUC(0-t) (clinical; 100 mg): 7560 ng·h/mL | Cmax (clinical; 100 mg): 1960 ng/mL | half-life (clinical; 100 mg): 3 h | half-life [5]: short half-life | AUC versus dose of vistusertib [6]: approximately dose proportional | Drug-drug PK interaction on drug exposure, combination versus either agent alone [6]: no drug-drug PK interaction | Abdominal cramps/pain, % of patients (patients with sqNSCLC; [10]): 8% | Alopecia, % of patients (patients with sqNSCLC; [10]): 54% | Haemoptysis, % of patients (patients with sqNSCLC; [10]): 4% | Aches and pain, % of patients (patients with sqNSCLC; [11]): 12% | Alopecia, % of patients (patients with sqNSCLC; [11]): 12% | Tolerated dose of vistusertib in sqNSCLC (patients with sqNSCLC; human, in vivo): 25 mg | Hyperglycaemia, all grades, % of patients (patients): 11% | Hyperglycaemia, grade 3/4, % of patients (patients): 1% | Patients with reduction in size of their tumour ([7]; HGSOC expansion at RP2D): 76% | Patients with reduction in size of their tumour, number ([7]; HGSOC expansion at RP2D): 19 of 25 | GCIG CA125 responses, patients [7, 12]: 16/25 | Median progression-free survival (mPFS) [7, 12]: 5.8 months | RECIST responses (partial response), patients [7, 12]: 13/25 | GCIG CA125 response rate [7, 13]: 64% | RECIST response rate [7, 13]: 52% | RECIST response, N with PR ([7]; OVARIAN Expansion (50 mg AZD2014/80 mg Paclitaxel), 27 patients): 13 PR | Partial responses in patients with sqNSCLC (sqNSCLC): two partial responses
